In this test the test system is r(CUG)12-MBNL1 complex. Briefly: Inhibition of the r(CUG)12-MBNL1 complex measured by TR-FRET. Format: biochemical. The following applies: 80 nM RNA, 60 nM MBNL1-His6. On the technique in general: In TR-FRET formats the signal depends on donor and acceptor labels being close together.

For the molecule `N#Cc1cccc(-c2nc3cc(-c4ccc5[nH]c(-c6cccc(C#N)c6)nc5c4)ccc3[nH]2)c1` [Compound 120], the IC50 (Table L) was more than 200 µM.
On the same count and under the same terms, with `O=[N+]([O-])c1ccc(-c2nc3cc(-c4ccc5[nH]c(-c6ccc([N+](=O)[O-])cc6)nc5c4)ccc3[nH]2)cc1` [Compound 94] the figure was more than 200 µM.
`CN(C)CCCOc1ccc2nc(-c3ccc(-c4nc5ccc(C(=O)NCCN6CCCCC6)cc5[nH]4)cc3)[nH]c2c1` [Compound 237, 2-(4-(6-(3-(dimethylamino)propoxy)-1H-benzo[d]imidazol-2-yl)phenyl)-N-(2-(piperidin-1-yl)ethyl)-1H-benzo[d]imidazole-6-carboxamide]: under “Table M”, the 50% inhibitory concentration (IC50) worked out at 26 µM.
Consider `CN1CCN(CCNC(=O)c2ccc(-c3nc4cc(-c5ccc6[nH]c(-c7ccc(C(=O)NCCN8CCN(C)CC8)cc7)nc6c5)ccc4[nH]3)cc2)CC1` [Compound 117], for which the 50% inhibitory concentration (IC50) (Table L) came out at 8.9 µM.
`N#Cc1cccc(Oc2ccc3nc(-c4ccc(-c5nc6ccc(Oc7cccc(C#N)c7)cc6[nH]5)cc4)[nH]c3c2)c1` [Compound 230, 3,3′-((2,2′-(1,4-phenylene)bis(1H-benzo[d]imidazole-6,2-diyl))bis(oxy))dibenzonitrile] registered a 50% inhibitory concentration (IC50) (Table M) of more than 200 µM.
Under “Table M”, `CN(C)CCNC(=O)c1ccc(-c2nc3cc(-c4ccc5[nH]c(-c6ccc(C(=O)N(C)CCCN(C)C(=O)c7ccc(-c8nc9cc(-c%10ccc%11[nH]c(-c%12ccc(C(=O)NCCN(C)C)cc%12)nc%11c%10)ccc9[nH]8)cc7)cc6)nc5c4)ccc3[nH]2)cc1` [Compound 409] registered a half-inhibitory concentration (IC50) of 50.6 µM.
In turn, `CC(C)(C)OC(=O)N1CCN(CCNC(=O)c2ccc3nc(-c4ccc(-c5nc6ccc(C(=O)NCCN7CCCCC7)cc6[nH]5)cc4)[nH]c3c2)CC1` [Compound 125] yielded a 50% inhibitory concentration (IC50) (Table L) of 25.6 µM.
For `CN(C)CCCOc1ccc2nc(-c3ccc(-c4nc5ccc(OCCCO)cc5[nH]4)cc3)[nH]c2c1` [Compound 222, 3-((2-(4-(5-(3-(dimethylamino)propoxy)-1H-benzo[d]imidazol-2-yl)phenyl)-1H-benzo[d]imidazol-5-yl)oxy)propan-1-ol], where the note is “Table M”, inhibition was half-maximal at 95.3 µM (IC50).
The molecule `Cn1c(-c2ccc(N)cc2)nc2cc(-c3ccc4c(c3)nc(-c3ccc(N)cc3)n4C)ccc21` [Compound 122, 1,1′-dimethyl-2,2′-bis(4-aminophenyl)-1H,1′H-5,5′-bibenzimidazole] had an IC50 (Table L) of 24 µM.
Still for that read-out and setting: as for `Cn1c(-c2ccc(-c3nc4ccccc4n3C)cc2)nc2ccccc21` [Compound 82], the figure is more than 200 µM.
Under “Table M”, `CN(C)Cc1cn(-c2ccc3nc(-c4ccc(-c5nc6ccc(-n7cc(CN(C)C)nn7)cc6[nH]5)cc4)[nH]c3c2)nn1` [Compound 247] registered an IC50 of 6.8 µM.
For `CN(C)CCCOc1ccc2nc(-c3ccc(-c4nc5ccc(OCCCN(C)C)cc5[nH]4)c(Br)c3)[nH]c2c1` [Compound 294, 3,3′-(2,2′-(2-bromo-1,4-phenylene)bis(3H-benzo[d]imidazole-5,2-diyl))bis(oxy)bis(N,N-dimethylpropan-1-amine)], the midpoint of inhibition (Table M), the IC50, lay at 18.4 µM.
On the same count and under the same terms, with `CN(C)CCNC(=O)c1ccc(-c2nc3ccc(-c4ccc5nc(-c6ccc(C(=O)N7CCC(CCCC8CCN(C(=O)c9ccc(-c%10nc%11ccc(-c%12ccc%13nc(-c%14ccc(C(=O)NCCN(C)C)cc%14)[nH]c%13c%12)cc%11[nH]%10)cc9)CC8)CC7)cc6)[nH]c5c4)cc3[nH]2)cc1` [Compound 427] the figure was 3.23 µM.
The same measure, in the same setting: as for `CN(C)CC(CN(C)C)Oc1ccc(-c2nc3cc(-c4ccc5[nH]c(-c6ccc(O)cc6)nc5c4)ccc3[nH]2)cc1` [Compound 370], the figure is 82.3 µM; as for `COc1ccc2nc(-c3ccc(-c4nc5ccc(OC)cc5[nH]4)cc3)[nH]c2c1` [Compound 189, 1,4-Bis(6-methoxy-1H-benzo[d]imidazol-2-yl)benzene], more than 200 µM.
Same read-out and setting: as for `Cc1cc(-c2nc3cc(-c4ccc5[nH]c(-c6ccc(OCCCN(C)C)c(C)c6)nc5c4)ccc3[nH]2)ccc1OCCCN(C)C` [Compound 364], the figure is 7.64 µM; as for `Cc1cc(-c2nc3ccc(OCCCN(C)C)cc3[nH]2)ccc1-c1nc2ccc(OCCCN(C)C)cc2[nH]1` [Compound 272], 95.2 µM; as for `CN1CC[C@@H](Oc2ccc3nc(-c4ccc(-c5nc6ccc(O[C@@H]7CCN(C)C7)cc6[nH]5)cc4)[nH]c3c2)C1` [Compound 181], 54.4 µM.
`CN(C)CCNC(=O)c1ccc(-c2nc3cc(-c4ccc5[nH]c(-c6ccc(C(=O)NCCCN=[N+]=[N-])cc6)nc5c4)ccc3[nH]2)cc1` [Compound 399] came in with an IC50 (Table M) of 9.6 µM.
On the same count and under the same terms, as for `CN(C)CCCOc1ccc(-c2nc3cc(-c4ccc5[nH]c(-c6ccc(C(=O)NCCCn7cc(-c8cccc(NC(=O)c9ccc(-c%10nc%11cc(-c%12ccc%13[nH]c(-c%14ccc(C(=O)NCCN(C)C)cc%14)nc%13c%12)ccc%11[nH]%10)cc9)c8)nn7)cc6)nc5c4)ccc3[nH]2)cc1` [Compound 456], the figure is 45.1 µM; as for `CC(CNC(=O)c1ccc(-c2nc3cc(-c4ccc5[nH]c(-c6ccc(C(=O)NCCN(C)C)cc6)nc5c4)ccc3[nH]2)cc1)NC(=O)c1ccc(-c2nc3cc(-c4ccc5[nH]c(-c6ccc(C(=O)NCCN(C)C)cc6)nc5c4)ccc3[nH]2)cc1` (stereo not shown) [Compound 411], 1.91 µM; as for `CN(C)CCCCc1ccc(-c2nc3cc(-c4ccc5[nH]c(-c6ccc(CCCCN(C)C)cc6)nc5c4)ccc3[nH]2)cc1` [Compound 385], 31.2 µM.
Still for that read-out and setting: as for `Oc1ccc2nc(-c3ccc(-c4nc5ccc(O)cc5[nH]4)cc3)[nH]c2c1` [Compound 190, 2,2′-(1,4-phenylene)bis(1H-benzo[d]imidazol-6-ol)], the figure is 179 µM.
Take `Cn1c(-c2ccc(-c3nc4cc(N)ccc4n3C)cc2)nc2cc(N)ccc21` [Compound 83, 2,2′-(1,4-phenylene)bis(1-methyl-1H-benzo[d]imidazol-5-amine)]: for the setting “Table L”, the concentration for half-maximal inhibition (IC50) was more than 200 µM.
On to `CCN(CC)CCCOc1ccc2nc(-c3ccc(-c4nc5ccc(OCCCN(CC)CC)cc5[nH]4)cc3)[nH]c2c1` [Compound 187], for which, where the note is “Table M”, the half-inhibitory concentration (IC50) was 58.9 µM.
Consider `CN(C)CC(=O)Nc1ccc2nc(-c3ccc(-c4nc5ccc(NC(=O)CN(C)C)cc5[nH]4)cc3)[nH]c2c1` [Compound 63], for which the IC50 (Table L) came out at 10.7 µM.
In turn, `CN1C2CCC1CC(NC(=O)c1ccc(-c3nc4cc(-c5ccc6[nH]c(-c7ccc(C(=O)NC8CC9CCC(C8)N9C)cc7)nc6c5)ccc4[nH]3)cc1)C2` (stereo not shown) [Compound 341] registered a half-inhibitory concentration (IC50) (Table M) of 5.32 µM.
On the same count and under the same terms, with `CN(C)CCNC(=O)c1ccc(-c2nc3cc(-c4ccc5[nH]c(-c6ccc(C(=O)NCCNC(=O)c7ccc(-c8nc9cc(-c%10ccc%11[nH]c(-c%12ccc(C(=O)NCCN(C)C)cc%12)nc%11c%10)ccc9[nH]8)cc7)cc6)nc5c4)ccc3[nH]2)cc1` [Compound 412] the figure was 3.28 µM; with `CN(C)CCOCCOc1ccc(-c2nc3cc(-c4ccc5[nH]c(-c6ccc(O)cc6)nc5c4)ccc3[nH]2)cc1` [Compound 368], 18 µM.
Still for that read-out and setting: with `CN(C)CCCOc1ccc(-c2nc3cc(-c4ccc5[nH]c(-c6ccc(C(=O)NCCCN=[N+]=[N-])cc6)nc5c4)ccc3[nH]2)cc1` [Compound 400] the figure was 14.8 µM.
Same read-out and setting: as for `CN(C)Cc1ccc(COc2ccc3nc(-c4ccc(-c5nc6ccc(OCc7ccc(CN(C)C)cc7)cc6[nH]5)cc4)[nH]c3c2)cc1` [Compound 217], the figure is 51.9 µM.

In general, IC50 refers to the concentration that gives 50% inhibition. A high value points to a need for much substance.
